20 compounds from ChEMBL document CHEMBL5252623, “Discovery of 3-phenyl-1,2,4-oxadiazole derivatives as a new class of SARS-CoV-2 main protease inhibitors” (Bioorg Med Chem Lett, 2023) can be followed below.

The target in this assay is Replicase polyprotein 1ab (Severe acute respiratory syndrome coronavirus 2, UniProt P0DTD1). In words: Inhibition of SARS-CoV-2 main protease expressed in Escherichia coli BL21 (DE3) using MDA-AVLQSGFR-Lys(Dnp)-Lys-NH2 as substrate incubated for 10 mins by FRET analysis.

For orientation: IC50 means the point on the concentration scale where inhibition reaches its midpoint. A higher IC50 goes with weaker potency in that assay. Regarding `O=C(NCc1nc(-c2ccc(C(F)(F)F)cc2)no1)c1ccccc1`, 62 µM corresponded to half-maximal inhibition (IC50).
Consider `CC1=C(c2ccccc2)C1C(=O)NCc1nc(-c2ccccc2)no1` (stereo not given), for which the IC50 turned out to be 79.6 µM.
Take `CC1=C(c2ccccc2)C1C(=O)NC(CC1CCCCC1)c1nc(-c2ccc(C(F)(F)F)cc2)no1` (stereo not given): the half-inhibitory concentration (IC50) was 19.4 µM.
In turn, `CC1=C(c2ccccc2)C1C(=O)NC(CC1CC1)c1nc(-c2ccc(C(F)(F)F)cc2)no1` (stereo not given) came in with an IC50 of 76.8 µM.
In turn, `CC1=C(c2ccccc2)C1C(=O)NC(Cc1cc2ccccc2[nH]1)c1nc(-c2ccc(C(F)(F)F)cc2)no1` (stereo not given) returned an IC50 of 14.7 µM.
As for `CC1=C(c2ccccc2)C1C(=O)NCc1nc(-c2ccccc2C(F)(F)F)no1` (stereo not given), the IC50 was determined as 66.9 µM.
For the compound `O=C(/C=C/c1ccccn1)NCc1nc(-c2ccc(C(F)(F)F)cc2)no1`, the IC50 amounted to 102 µM.
`CC1=C(c2ccccc2)C1C(=O)NCc1nc(-c2ccc(C(F)(F)F)cc2)no1` (stereo not given) gave an IC50 of 6.71 µM.
Compound `O=C(/C=C/c1ccco1)NCc1nc(-c2ccc(C(F)(F)F)cc2)no1` yielded an IC50 of 60.5 µM.
As for `O=C(/C=C/c1cccs1)NCc1nc(-c2ccc(C(F)(F)F)cc2)no1`, the IC50 amounted to 54.6 µM.
Take `O=C(/C=C/c1ccccc1)NCc1nc(-c2ccc(C(F)(F)F)cc2)no1`: it took 46.3 µM to reach half-maximal inhibition (IC50).
Next, `CC1=C(c2ccccc2)C1C(=O)NC(Cc1ccccc1F)c1nc(-c2ccc(C(F)(F)F)cc2)no1` (stereo not given): 7.48 µM.
The value for `O=C(C#Cc1ccccc1)NCc1nc(-c2ccc(C(F)(F)F)cc2)no1` was 46.9 µM; that for `CC1=C(c2ccccc2)C1C(=O)NC(Cc1ccc(F)cc1)c1nc(-c2ccc(C(F)(F)F)cc2)no1` (stereo not given) was 16.5 µM.
In turn, `CC1=C(c2ccccc2)C1C(=O)NC(Cc1cccc(F)c1)c1nc(-c2ccc(C(F)(F)F)cc2)no1` (stereo not given) showed an IC50 of 14.2 µM.
`O=C(CCc1ccccc1)NCc1nc(-c2ccc(C(F)(F)F)cc2)no1` showed an IC50 of 90.5 µM.
On to `C/C=C/C(=O)NCc1nc(-c2ccc(C(F)(F)F)cc2)no1`, for which the IC50 came to 250 µM.
`CC1=C(c2ccccc2)C1C(=O)NCc1nc(-c2cccc(C(F)(F)F)c2)no1` (stereo not given) had a concentration for half-maximal inhibition (IC50) of 14.3 µM.
As to `CC1=C(c2ccccc2)C1C(=O)NC(Cc1ccc2ccccc2c1)c1nc(-c2ccc(C(F)(F)F)cc2)no1` (stereo not given), the IC50 was 6.47 µM.
The compound `CC1=C(c2ccccc2)C1C(=O)NC(Cc1ccccc1)c1nc(-c2ccc(C(F)(F)F)cc2)no1` (stereo not given) came in with an IC50 of 5.27 µM.
